# Tests used:
# [1] = Bioavailability (absolute) of oral liposomal Vancomycin versus i.v.; type: in vivo; details: male, Wistar, rat, whole blood; oral liposomal formulation containing 1 mol-% of the cyclic CPP-liposomes, rats; read-out: bioavailability (absolute) in comparison with the i.v. application
# Description: The animal study was performed according to local authorities using male Wistar rats with a body weight of about 200-250 g. For the determination of the bioavailability (absolute) the glycopeptide antibiotic Vancomycin was radiolabeled with ^131I and incorporated into the liposomal formulation containing 1 mol-% of the cyclic CPP-phospholipid-conjugate and compared with Vancomycin i.v. as described previously. At several time points, the blood levels of Vancomycin were measured by direct counting of the radiolabeled sample. Briefly, groups (n≥3) of male Wistar rats were formed. Prior to 12 h of the experiment, the rats were kept without food, but with free access to water. Oral application of the liposomes took place by gavage. The blood was removed, weighed and the radioactivity was measured using a Berthold LB 951 G counter in comparison with standards. The blood-associated activity was related to the total injected dose (ID) and expressed as a percentage of the total injected dose per gram of tissue (% ID/g).
# [2] = Radioactivity at determined time points after oral application of radiolabeled substances; type: in vivo; details: radiolabeled substance
# [3] = Oral availability of radiolabeled Adalimumab; type: in vivo, male Wistar rats; details: liposomes containing 1 mol-% cyclic CPP-conjugate vs radiolabeled free antibody, 6 h, rats
# Description: The animal study was performed according to local authorities using male Wistar rats with a body weight of about 200-250 g. For the determination of the bioavailability (absolute), the antibody Adalimumab (Humira®) was radiolabeled with ^131I and incorporated into the liposomal formulation containing 1 mol-% of the cyclic CPP-phospholipid-conjugate and compared with the free antibody as described previously. After 6 h, the blood levels were measured by direct counting of the radiolabeled sample. Prior to 12 h of the experiment, the rats were kept without food, but with free access to water. Oral application of the liposomes and the radiolabeled free antibody took place by gavage. The blood was removed, weighed and the radioactivity was measured using a Berthold LB 951 G counter in comparison with standards. The blood-associated activity was related to the total injected dose (ID) and expressed as a percentage of the total injected dose per gram of tissue (% ID/g) (FIG. 16).
Compound,bioavailability [1],mucosal uptake by the liposomal formulations [2],oral availability [3]
CN[C@H](CC(C)C)C(=O)N[C@H]1C(=O)N[C@@H](CC(N)=O)C(=O)N[C@H]2C(=O)N[C@H]3C(=O)N[C@H](C(=O)N[C@H](C(=O)O)c4cc(O)cc(O)c4-c4cc3ccc4O)[C@H](O)c3ccc(c(Cl)c3)Oc3cc2cc(c3O[C@@H]2O[C@H](CO)[C@@H](O)[C@H](O)[C@H]2O[C@H]2C[C@](C)(N)[C@H](O)[C@H](C)O2)Oc2ccc(cc2Cl)[C@H]1O [Vancomycin],≤ 50%,–,–
CCCCCCCCCCCCCCCC(=O)N[C@@H](CCC(=O)NCCCC[C@H](NC(=O)[C@H](C)NC(=O)[C@H](C)NC(=O)[C@H](CCC(N)=O)NC(=O)CNC(=O)[C@H](CCC(=O)O)NC(=O)[C@H](CC(C)C)NC(=O)[C@H](Cc1ccc(O)cc1)NC(=O)[C@H](CO)NC(=O)[C@H](CO)NC(=O)[C@@H](NC(=O)[C@H](CC(=O)O)NC(=O)[C@H](CO)NC(=O)[C@@H](NC(=O)[C@H](Cc1ccccc1)NC(=O)[C@@H](NC(=O)CNC(=O)[C@H](CCC(=O)O)NC(=O)[C@H](C)NC(=O)[C@@H](N)Cc1cnc[nH]1)[C@@H](C)O)[C@@H](C)O)C(C)C)C(=O)N[C@@H](CCC(=O)O)C(=O)N[C@@H](Cc1ccccc1)C(=O)N[C@H](C(=O)N[C@@H](C)C(=O)N[C@@H](Cc1c[nH]c2ccccc12)C(=O)N[C@@H](CC(C)C)C(=O)N[C@H](C(=O)N[C@@H](CCCNC(=N)N)C(=O)NCC(=O)N[C@@H](CCCNC(=N)N)C(=O)NCC(=O)O)C(C)C)[C@@H](C)CC)C(=O)O [Liraglutide],–,strongly enhanced mucosal uptake,–
Adalimumab,–,strongly enhanced mucosal uptake,strong increase

# Source: US10653796B2, “Liposomes containing cell penetrating peptides and tetraetherlipids for the oral delivery of macromolecules” (Universität Heidelberg, priority 2015, dated 2020)
